Reference: US5340833A, “Urokinase inhibitors” (Eisai Co., Ltd., priority 1992, dated 1994)
Values joined by “and” are separate entries in the source; they are usually repeats but may differ in a detail not shown here. Equal values may be shown once. Where a name gives a salt, the structure may show the parent alone. Read-outs that look alike come from different tables or passages of the source.

Assays:
Type in all cases: biochemical
human plasmin = target: T1, human plasmin (Homo sapiens, UniProt P00747); experiment: Plasmin Assay; conditions: for PLM/uPA ratio: ratio with respect to urokinase indirect plasminogen-linked IC50, larger = greater specificity for urokinase; for IC50: read-out: PLASMIN IC50; for inhibition at 1000 µM: read-out: PLASMIN activity observed relative to inhibitor-free controls
T1 construct: plasmin, the potent general protease produced by cleavage of plasminogen by either urokinase or tPA; purchased American Diagnostica
Experimental: (v) A chromogenic pNA assay for plasmin, the potent general protease produced by cleavage of plasminogen by either urokinase or tPA. Although urokinase initiates cellular invasiveness by generating plasmin, the additional importance of plasmin in tPA-mediated fibrinolysis dictates that plasmin itself should be free from inhibition by urokinase inhibitors designed as anti-invasiveness agents. […] All other assay conditions, as well as methods of color quantitation, were carried out as described above for the urokinase direct assay.

urokinase = target: T2, urokinase (Homo sapiens, UniProt P00749); experiment: Urokinase Indirect (Plasminogen-Linked) Assay; conditions: Table 3 column 4, simple number, unit inferred; read-out: uPA Indirect (plasminogen-linked) IC50
T2 construct: human high molecular weight urokinase; purchased American Diagnostica, Greenwich, Conn
Experimental: (ii) An indirect plasminogen-linked assay in which urokinase proteolytically activates plasminogen, forming plasmin which then cleaves a synthetic tripeptide pNA plasmin substrate.
Incubations were carried out at 22° C. for 45-60 minutes or until adequate color developed. Color qas quantitated as in the urokinase direct assay above. Parallel incubations were performed with and without plasminogen, and corrected absorbance values were obtained by subtracting values obtained without plasminogen from those obtained with plasminogen, eliminating any contribution of direct cleavage, if any, of plasmin substrate by urokinase.

human two-chain tPA = target: T3, human two-chain tPA (Homo sapiens, UniProt P00750); experiment: tPA Indirect (Plasminogen-Linked) Assay (tPA Direct Assay result where lower); conditions: for tPA/UPA ratio: ratio with respect to urokinase indirect plasminogen-linked IC50, larger = greater specificity for urokinase; for IC50: tPA Indirect Plasminogen-Linked Assay, in rare cases direct assay result if lower, read-out: tPA IC50; for inhibition at 1000 µM: read-out: tPA activity observed relative to inhibitor-free controls
T3 construct: human two-chain tPA was substituted for urokinase; purchased American Diagnostica
Text: (iv) Both direct and plasminogen-linked pNA assays for tPA, the other mammalian plasminogen activator and the key initiator of blood clot dissolution or fibrinolysis. Since urokinase and tPA share an absolute specificity for the same peptide bond in plasminogen, urokinase inhibitors designed to block cellular invasiveness must be highly specific for urokinase over tPA in order to avoid serious thrombotic side effects secondary to undesired blockage of normal fibrinolysis. […] Spectrozyme tPA®, American Diagnostica) was substituted for urokinase substrate.

[1] = target: T4, human high molecular weight urokinase (Homo sapiens, UniProt P00749); experiment: Urokinase Direct Assay; conditions: inhibitor concentration of 1 mM; for residual urokinase activity at 1000 µM: read-out: uPA Direct: percentage of residual urokinase activity relative to inhibitor-free controls, heading: uPA Direct: percentage of residual urokinase activity relative to inhibitor-free controls
T4 construct: human high molecular weight urokinase; purchased American Diagnostica, Greenwich, Conn
Experimental: (i) A direct chromogenic assay in which urokinase cleaves a synthetic tripeptide p-nitroanilide (pNA) urokinase substrate.
Incubations were carried out at 37° C. for approximately 2 hours or until adequate yellow color developed. Color was quantitated by measuring absorbance at 405 nm (A405) using a Titertek Multiskan MCC/340 MK II microtiter plate spectrophotometer.

T1 sequence (P00747 581-810 limits assumed): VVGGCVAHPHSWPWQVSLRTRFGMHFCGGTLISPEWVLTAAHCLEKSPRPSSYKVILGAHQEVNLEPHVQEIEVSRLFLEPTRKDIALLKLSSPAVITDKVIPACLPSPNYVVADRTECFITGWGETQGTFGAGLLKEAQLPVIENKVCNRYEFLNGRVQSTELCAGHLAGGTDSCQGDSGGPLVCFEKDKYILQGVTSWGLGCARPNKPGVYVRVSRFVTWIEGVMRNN
T1 sequence (P00747 97-580 limits assumed): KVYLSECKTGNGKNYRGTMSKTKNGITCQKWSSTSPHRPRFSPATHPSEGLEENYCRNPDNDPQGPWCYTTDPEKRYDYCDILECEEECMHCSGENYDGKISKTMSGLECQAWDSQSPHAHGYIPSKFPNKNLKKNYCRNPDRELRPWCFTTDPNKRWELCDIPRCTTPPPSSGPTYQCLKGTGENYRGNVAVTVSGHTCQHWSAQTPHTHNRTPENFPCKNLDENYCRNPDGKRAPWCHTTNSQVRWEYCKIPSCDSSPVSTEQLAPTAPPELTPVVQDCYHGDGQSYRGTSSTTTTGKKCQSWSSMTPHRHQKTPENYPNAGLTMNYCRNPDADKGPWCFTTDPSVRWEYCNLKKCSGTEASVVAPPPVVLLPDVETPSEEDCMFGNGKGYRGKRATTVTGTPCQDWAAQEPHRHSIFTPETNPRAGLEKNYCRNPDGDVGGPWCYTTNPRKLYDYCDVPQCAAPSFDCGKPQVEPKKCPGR
T3 sequence (P00750 311-562 limits assumed): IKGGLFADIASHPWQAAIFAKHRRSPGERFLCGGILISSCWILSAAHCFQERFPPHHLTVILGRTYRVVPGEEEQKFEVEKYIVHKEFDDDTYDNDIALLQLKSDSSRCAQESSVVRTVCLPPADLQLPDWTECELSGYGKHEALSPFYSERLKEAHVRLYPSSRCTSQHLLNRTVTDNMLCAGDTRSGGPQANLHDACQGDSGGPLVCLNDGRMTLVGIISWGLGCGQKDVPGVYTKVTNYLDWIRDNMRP
T3 sequence (P00750 36-310 limits assumed): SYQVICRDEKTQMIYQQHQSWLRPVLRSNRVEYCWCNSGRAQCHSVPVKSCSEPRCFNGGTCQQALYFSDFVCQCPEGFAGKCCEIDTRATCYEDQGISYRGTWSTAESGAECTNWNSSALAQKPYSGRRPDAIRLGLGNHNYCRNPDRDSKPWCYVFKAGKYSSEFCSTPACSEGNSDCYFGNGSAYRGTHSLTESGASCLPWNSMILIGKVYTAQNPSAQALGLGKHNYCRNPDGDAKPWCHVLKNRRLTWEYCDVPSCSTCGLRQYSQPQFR

Row | Compound | PLM/uPA ratio (human plasmin) | IC50 (human plasmin) [µM] | IC50 (urokinase) | tPA/UPA ratio (human two-chain tPA) | IC50 (human two-chain tPA) [µM] | residual urokinase activity at 1000 µM [1] [%] | other results
1 | N=C(N)c1ccc(-c2ccc(-c3cccc4sc(C(=N)N)cc34)o2)cc1 [Compound 53, 4-[5-(4-carboxamidinophenyl)fur-2-yl]benzo[b]thiophene-2-carboxamidine bis-hydrochloride] | 511 | 47 | 0.092 µM | 45 | 4.1 |  | 
2 | Cl.N=C(N)c1cc2c(-c3cc4ccccc4o3)cccc2s1 [Compound 51, 4-(Benzo[b]furan-2-yl)benzo[b]thiophene-2-carboxamidine hydrochloride] | 1330 | 745 | 0.56 µM | 200 | 112 |  | 
3 | Cl.N=C(N)c1cc2ccsc2s1 [Compound 321, Thieno[2,3-b]thiophene-2-carboxamidine hydrochloride] | ≥ 1000 |  |  | ≥ 500 |  | 4.1 | inhibition at 1000 µM (human plasmin; 1 mM inhibitor): 88%; inhibition at 1000 µM (human two-chain tPA; 1 mM inhibitor): 74%
4 | N=C(N)c1cc2cc(-c3cc4ccccc4s3)ccc2s1 [Compound 128, 5-(Benzo[b]thien-2-yl)benzo[b]thiophene-2-carboxamidine hydrochloride] |  |  | 0.94 µM |  |  |  | 
5 | COc1ccc2sc(C(=N)N)cc2c1Br.Cl [Compound 204, 4-Bromo-5-methoxybenzo[b]thiophene-2-carboxamidine hydrochloride] | ≥ 750 |  | 1.7 µM | 251 | 427 |  | inhibition at 1000 µM (human plasmin): 69%
6 | Cl.Cl.N=C(N)c1cc2c(-c3cccnc3)cccc2s1 [Compound 48, 4-(Pyrid-3-yl)benzo[b]thiophene-2-carboxamidine bis-hydrochloride] | 609 | 341 | 0.56 µM | 152 | 85 |  | 
7 | CSc1cccc2sc(C(=N)N)cc12.Cl [Compound 58, 4-(Methylthio)benzo[b]thiophene-2-carboxamidine hydrochloride] | 954 | 534 | 0.56 µM | 413 | 231 |  | 
8 | N=C(N)c1cc2cc(C=CC3CC3)ccc2s1 [Compound 121, 5-(E/Z-2-Cyclopropylethenyl)benzo[b]thiophene-2-carboxamidine hydrochloride] | 1875 | 1050 | 0.56 µM | 313 | 175 |  | 
9 | Cl.N=C(N)c1cc2c(-c3cccs3)cccc2s1 [Compound 50, 4-(Thien-2-yl)benzo[b]thiophene-2-carboxamidine hydrochloride] | 762 | 381 | 0.5 µM | 56 | 28 |  | 
10 | Cl.N=C(N)c1cc2c(/C=C/c3ccco3)cccc2s1 [Compound 67, 4-[E-2-(Furan-2-yl)ethenyl]benzo[b]thiophene-2-carboxamidine hydrochloride] | 1000 | 195 | 0.195 µM | 133 | 26 |  | 
11 | N=C(N)c1cc2c(C=Cc3ccc4c(c3)OCCO4)cccc2s1 [Compound 66, 4-[E/Z,2-(Benzo-1,4-dioxan-6-yl)ethenyl]benzo[b]thiophene-2-carboxamidine hydrochloride] | 4580 | 174 | 0.12 µM and 0.038 µM | 395 | 15 |  | 
12 | Cl.N=C(N)c1cc2cc(Br)ccc2s1 [Compound 103, 5-Bromobenzo[b]thiophene-2-carboxamidine hydrochloride] | ≥ 4000 |  | 3.5 µM | ≥ 400 |  |  | inhibition at 1000 µM (human plasmin): 98%; inhibition at 1000 µM (human two-chain tPA): 63%
13 | C=CCc1cccc2sc(C(=N)N)cc12.Cl [Compound 19, 4-(Prop-2-enyl)benzo[b] thiophene-2-carboxamidine hydrochloride] | 1120 | 505 | 0.45 µM | 127 | 57 |  | 
14 | C=Cc1cccc2sc(C(=N)N)cc12.Cl [Compound 17, 4-Ethenylbenzo[b]thiophene-2-carboxamidine hydrochloride] | 42 | 57 | 1.4 µM | 6.3 | 8.6 |  | 
15 | CC(C)CCc1cccc2sc(C(=N)N)cc12.Cl [Compound 12, 4-(3-Methylbutyl)benzo[b]thiophene-2-carboxamidine hydrochloride] | 847 | 288 | 0.34 µM | 279 | 95 |  | 
16 | N=C(N)c1cc2cc(CCC3CC3)ccc2s1 [Compound 112, 5-(2-Cyclopropylethyl)benzo[b]thiophene-2-carboxamidine hydrochloride] |  |  |  |  |  | 3.3 | 
17 | CC(C)CCc1ccc2sc(C(=N)N)cc2c1 [Compound 110, 5-(3-Methylbutyl)benzo[b]thiophene-2-carboxamidine hydrochloride] |  |  |  |  |  | 4.2 | 
18 | N=C(N)c1ccc2sccc2c1 [Compound 314, Benzo[b]thiophene-5-carboxamidine hydrochloride] |  |  |  |  |  | 43 | 

Row | Compound | PLM/uPA ratio (human plasmin) | IC50 (human plasmin) [µM] | IC50 (urokinase) | tPA/UPA ratio (human two-chain tPA) | IC50 (human two-chain tPA) [µM] | residual urokinase activity at 1000 µM [1] [%] | other results
19 | CCC=Cc1ccc2sc(C(=N)N)cc2c1 [Compound 117, 5-(E/Z-But-1-enyl)benzo[b]thiophene-2-carboxamidine hydrochloride] |  |  |  |  |  | 1.1 | 
20 | N=C(N)c1cc2c(C=O)cccc2s1 [Compound 55, 4-Formylbenzo[b]thiophene-2-carboxamidine hydrochloride] |  |  |  |  |  | 4.8 | 
21 | N=C(N)c1ccc(/C=C/c2cc3ccc4sc(C(=N)N)cc4c3s2)cc1 [Compound 209, 5-[E-2-(4-Carboxamidinophenyl)ethenyl]thieno[4,5-b]benzo[b]thiophene-2-carboxamidine bis-hydrochloride] |  |  | 0.27 µM |  |  |  | 
22 | N=C(N)c1cc2cc(C(F)(F)F)ccc2s1 [Compound 129, 5-(Trifluoromethyl)benzo[b]thiophene-2-carboxamidine hydrochloride] |  |  |  |  |  | 8.2 | 
23 | N=C(N)c1cc2sccc2s1 [Compound 322, Thieno[3,2-b]thiophene-2-carboxamidine hydrochloride] |  |  |  |  |  | 2.7 | 
24 | C=CCSc1cccc2sc(C(=N)N)cc12 [Compound 59, 4-(Prop-2-en-1-ylthio)benzo[b]thiophene-2-carboxamidine hydrochloride] |  |  |  |  |  | 1.1 | 
25 | N=C(N)c1cc2cccc(I)c2s1 [Compound 302, 7-Iodobenzo[b]thiophene-2-carboxamidine hydrochloride] |  |  |  |  |  | 10.8 | 
26 | N=C(N)c1cc2c(Cl)cccc2s1 [Compound 3, 4-Chlorobenzo[b]thiophene-2-carboxamidine hydrochloride] |  |  |  |  |  | 3 | 
27 | N=C(N)c1sc2ccccc2c1O [Compound 305, 3-Hydroxybenzo[b]thiophene-2-carboxamidine hydrochloride] |  |  |  |  |  | > 90 | 
28 | C=C(C)c1cccc2sc(C(=N)N)cc12 [Compound 18, 4-(1-Methylethenyl)benzo[b]thiophene-2-carboxamidine hydrochloride] |  |  |  |  |  | 1.3 | 
29 | N=C(N)c1cc2c(C3CCCO3)cccc2s1 (racemic) [Compound 61, 4-([R,S]-Tetrahydrofuran-2-yl)benzo[b]thiophene-2-carboxamidine hydrochloride] |  |  |  |  |  | 0.6 | 
30 | N=C(N)c1ccc(-c2cccc3sc(C(=N)N)cc23)cc1 [Compound 47, 4-(4-Carboxamidinophenyl)benzo[b]thiophene-2-carboxamidine bis-hydrochloride] |  |  |  |  |  | 7.6 | 
31 | CCCCc1ccc2sc(C(=N)N)cc2c1 [Compound 108, 5-Butylbenzo[b]thiophene-2-carboxamidine hydrochloride] |  |  |  |  |  | 3.4 | 
32 | N=C(N)c1ccc2ccsc2c1 [Compound 315, Benzo[b]thiophene-6-carboxamidine hydrochloride] |  |  |  |  |  | 21 | 
33 | N=C(N)Nc1cc2ccccc2s1 [Compound 319, 2-Guanidinobenzo[b]thiophene hydrochloride] |  |  |  |  |  | > 90 | 
34 | COc1ccc(F)c2cc(C(=N)N)sc12 [Compound 310, 4-Fluoro-7-methoxybenzo[b]thiophene-2-carboxamidine hydrochloride] |  |  |  |  |  | > 90 | 
35 | 4-(7-Amidino-E-hept-1-enyl)benzo[b]thiophene-2-carboxamidine bishydrochloride [Compound 33] |  |  |  |  |  |  | uPA Direct: percentage of residual urokinase activity relative to inhibitor-free controls [1]: 1.3%
